{"source": "patent US20110060053A1", "about": "“Crystalline Modifications of 6-Dimethylaminomethyl-1-(3-methoxyphenyl)-cyclohexane-1,3-diol” (Gruenenthal GmbH, priority 2002, published 2011)", "assay": "thermodynamic stability of the crystalline modifications", "type": "physicochemical", "details": "in particular in the temperature range of −20° C. to 120° C."}
{"smiles": "COc1cccc([C@@]2(O)C[C@H](O)CC[C@@H]2CN(C)C)c1", "note": "(racemic) [Crystalline modification A, (1RS,3RS,6RS)-6-dimethylaminomethyl-1-(3-methoxyphenyl)-cyclohexan-1,3-diol]", "values": [{"measurement": "thermodynamic stability", "result": "most thermodynamically stable form"}]}
